Test results taken from patent US11117900B2 (Vertex Pharmaceuticals Incorporated, priority 2012, dated 2021).

What follows are molecules tested on HCT116 colorectal cancer cells (assay: Cisplatin sensitization assay (96 h MTS cell viability)). Conditions: Cisplatin sensitization value.
Type: cell-based
How it was run: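 The MTS viability read, after 1 h with reagent, followed 96 h of co-treatment at 37° C. in 5% CO2. Both compound and cisplatin were titrated 2-fold from a 10 μM top final concentration in a complete concentration matrix on HCT116 cells. Scores +++/++/+ reflect cisplatin sensitization value ranges.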
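Also: compound concentration needed to lower the IC50 of Cisplatin alone by a set fold.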

**Q.** Which “Cisplatin Sensitization Assay” value does the source give for `COCCOc1ccncc1NC(=O)c1c(N)nn2cc(Cl)cnc12` [I-O-55, 2-amino-6-chloro-N-(4-(2-methoxyethoxy)pyridin-3-yl)pyrazolo[1,5-a]pyrimidine-3-carboxamide] here?
**A.** ++ (Compounds with a Cisplatin sensitization value >0.02 μM but <0.2 μM are marked with “++.”)

**Q.** With `COc1ccncc1NC(=O)c1c(N)nn2cc(CC#N)cnc12` [I-O-26, 2-amino-6-(cyanomethyl)-N-(4-methoxypyridin-3-yl)pyrazolo[1,5-a]pyrimidine-3-carboxamide] as the molecule, how does the “Cisplatin Sensitization Assay” value read?
**A.** ++ (Compounds with a Cisplatin sensitization value >0.02 μM but <0.2 μM are marked with “++.”)

**Q.** How did the “Cisplatin Sensitization Assay” value turn out when `CN1CCN(c2c(C#N)cncc2NC(=O)c2c(N)nn3cc(F)cnc23)CC1` [I-N-113, 2-amino-N-(5-cyano-4-(4-methylpiperazin-1-yl)pyridin-3-yl)-6-fluoropyrazolo[1,5-a]pyrimidine-3-carboxamide] was run?
**A.** + (Compounds with a Cisplatin sensitization value >0.2 μM but <5 μM are marked with “+.”)

**Q.** How did the “Cisplatin Sensitization Assay” value turn out when `Nc1nn2cc(F)cnc2c1C(=O)Nc1cnccc1N1CCN(C2CC2)CC1` [I-N-33, 2-amino-N-(4-(4-cyclopropylpiperazin-1-yl)pyridin-3-yl)-6-fluoropyrazolo[1,5-a]pyrimidine-3-carboxamide] was run?
**A.** + (Compounds with a Cisplatin sensitization value >0.2 μM but <5 μM are marked with “+.”)

**Q.** How did the “Cisplatin Sensitization Assay” value turn out when `Nc1nn2cc(F)cnc2c1C(=O)Nc1cnccc1-c1ccnnc1` [I-C-26, 2-amino-6-fluoro-N-(4-(pyridazin-4-yl)pyridin-3-yl)pyrazolo[1,5-a]pyrimidine-3-carboxamide] was run?
**A.** ++ (Compounds with a Cisplatin sensitization value >0.02 μM but <0.2 μM are marked with “++.”)

**Q.** `Nc1nn2cc(F)cnc2c1C(=O)Nc1cnccc1N1CCC(c2ncon2)CC1` [I-N-241, N-(4-(4-(1,2,4-oxadiazol-3-yl)piperidin-1-yl)pyridin-3-yl)-2-amino-6-fluoropyrazolo[1,5-a]pyrimidine-3-carboxamide] was tested. Which “Cisplatin Sensitization Assay” value did it give?
**A.** +++ (Compounds with a Cisplatin sensitization value of <0.02 μM are marked with “+++.”)

**Q.** `CC(=O)N1CCC2(CCN(c3ccncc3NC(=O)c3c(N)nn4cc(F)cnc34)CC2)C1` [I-N-257, N-(4-(2-acetyl-2,8-diazaspiro[4.5]decan-8-yl)pyridin-3-yl)-2-amino-6-fluoropyrazolo[1,5-a]pyrimidine-3-carboxamide] was tested. Which “Cisplatin Sensitization Assay” value did it give?
**A.** +++ (Compounds with a Cisplatin sensitization value of <0.02 μM are marked with “+++.”)

**Q.** With `COC1(C)CN(C(=O)C2CCN(c3ccncc3NC(=O)c3c(N)nn4cc(F)cnc34)CC2)C1` [I-G-79, 2-amino-6-fluoro-N-(4-(4-(3-methoxy-3-methylazetidine-1-carbonyl)piperidin-1-yl)pyridin-3-yl)pyrazolo[1,5-a]pyrimidine-3-carboxamide] as the molecule, how does the “Cisplatin Sensitization Assay” value read?
**A.** +++ (Compounds with a Cisplatin sensitization value of <0.02 μM are marked with “+++.”)

**Q.** `Nc1nn2cc(F)cnc2c1C(=O)Nc1cncc(F)c1N1CCN(S(=O)(=O)C2CCOCC2)CC1` [I-N-158, 2-amino-6-fluoro-N-(5-fluoro-4-(4-((tetrahydro-2H-pyran-4-yl)sulfonyl)piperazin-1-yl)pyridin-3-yl)pyrazolo[1,5-a]pyrimidine-3-carboxamide] was tested. Which “Cisplatin Sensitization Assay” value did it give?
**A.** +++ (Compounds with a Cisplatin sensitization value of <0.02 μM are marked with “+++.”)

**Q.** Which “Cisplatin Sensitization Assay” value does the source give for `Nc1nn2cc(F)cnc2c1C(=O)Nc1cncc(F)c1N1CCC(C(=O)N2CCN(C3CCC3)CC2)CC1` [I-G-35, 2-amino-N-(4-(4-(4-cyclobutylpiperazine-1-carbonyl)piperidin-1-yl)-5-fluoropyridin-3-yl)-6-fluoropyrazolo[1,5-a]pyrimidine-3-carboxamide] here?
**A.** +++ (Compounds with a Cisplatin sensitization value of <0.02 μM are marked with “+++.”)

**Q.** With `COC1(CN(C)C)CCN(c2ccncc2NC(=O)c2c(N)nn3cc(Cl)cnc23)CC1` [I-N-46, 2-amino-6-chloro-N-(4-(4-((dimethylamino)methyl)-4-methoxypiperidin-1-yl)pyridin-3-yl)pyrazolo[1,5-a]pyrimidine-3-carboxamide] as the molecule, how does the “Cisplatin Sensitization Assay” value read?
**A.** +++ (Compounds with a Cisplatin sensitization value of <0.02 μM are marked with “+++.”)

**Q.** For `CN1CCN(C(=O)c2cnc(-c3ccncc3NC(=O)c3c(N)nn4cc(F)cnc34)c(Cl)c2)CC1` [I-C-46, 2-amino-N-(3-chloro-5-(4-methylpiperazine-1-carbonyl)-[2,4′-bipyridin]-3′-yl)-6-fluoropyrazolo[1,5-a]pyrimidine-3-carboxamide], which “Cisplatin Sensitization Assay” value is on record?
**A.** + (Compounds with a Cisplatin sensitization value >0.2 μM but <5 μM are marked with “+.”)

**Q.** How did the “Cisplatin Sensitization Assay” value turn out when `CN1CC2(CCN(c3c(F)cncc3NC(=O)c3c(N)nn4cc(F)cnc34)CC2)OC1=O` [I-N-229, 2-amino-6-fluoro-N-(5-fluoro-4-(3-methyl-2-oxo-1-oxa-3,8-diazaspiro[4.5]decan-8-yl)pyridin-3-yl)pyrazolo[1,5-a]pyrimidine-3-carboxamide] was run?
**A.** +++ (Compounds with a Cisplatin sensitization value of <0.02 μM are marked with “+++.”)

**Q.** `CN1C(=O)CCC12CCN(c1ccncc1NC(=O)c1c(N)nn3cc(F)cnc13)CC2` [I-N-235, 2-amino-6-fluoro-N-(4-(1-methyl-2-oxo-1,8-diazaspiro[4.5]decan-8-yl)pyridin-3-yl)pyrazolo[1,5-a]pyrimidine-3-carboxamide] was tested. Which “Cisplatin Sensitization Assay” value did it give?
**A.** ++ (Compounds with a Cisplatin sensitization value >0.02 μM but <0.2 μM are marked with “++.”)

**Q.** How did the “Cisplatin Sensitization Assay” value turn out when `CC(C)(C#N)c1cnc2c(C(=O)Nc3cnccc3N3CCN(C4COC4)CC3)c(N)nn2c1` [I-N-142, 2-amino-6-(2-cyanopropan-2-yl)-N-(4-(4-(oxetan-3-yl)piperazin-1-yl)pyridin-3-yl)pyrazolo[1,5-a]pyrimidine-3-carboxamide] was run?
**A.** ++ (Compounds with a Cisplatin sensitization value >0.02 μM but <0.2 μM are marked with “++.”)

**Q.** Which “Cisplatin Sensitization Assay” value does the source give for `CN1CCN(S(=O)(=O)C2CCN(c3c(F)cncc3NC(=O)c3c(N)nn4cc(F)cnc34)CC2)CC1` [I-N-166, 2-amino-6-fluoro-N-(5-fluoro-4-(4-((4-methylpiperazin-1-yl)sulfonyl)piperidin-1-yl)pyridin-3-yl)pyrazolo[1,5-a]pyrimidine-3-carboxamide] here?
**A.** +++ (Compounds with a Cisplatin sensitization value of <0.02 μM are marked with “+++.”)

**Q.** Which “Cisplatin Sensitization Assay” value does the source give for `Nc1nn2cc(F)cnc2c1C(=O)Nc1cnccc1-c1ccc(C(=O)N2CCC(N3CCCC3)CC2)nc1` [I-C-53, 2-amino-6-fluoro-N-(6-(4-(pyrrolidin-1-yl)piperidine-1-carbonyl)-[3,4′-bipyridin]-3′-yl)pyrazolo[1,5-a]pyrimidine-3-carboxamide] here?
**A.** +++ (Compounds with a Cisplatin sensitization value of <0.02 μM are marked with “+++.”)

**Q.** Which “Cisplatin Sensitization Assay” value does the source give for `COc1cncc(NC(=O)c2c(N)nn3cc(F)cnc23)c1-c1cncn1C` [I-C-81, 2-amino-6-fluoro-N-(5-methoxy-4-(1-methyl-1H-imidazol-5-yl)pyridin-3-yl)pyrazolo[1,5-a]pyrimidine-3-carboxamide] here?
**A.** +++ (Compounds with a Cisplatin sensitization value of <0.02 μM are marked with “+++.”)

**Q.** Which “Cisplatin Sensitization Assay” value does the source give for `CN1CCN(C(=O)c2ccc(-c3ccncc3NC(=O)c3c(N)nn4cc(F)cnc34)cn2)CC1` [I-C-19, 2-amino-6-fluoro-N-(6-(4-methylpiperazine-1-carbonyl)-[3,4′-bipyridin]-3′-yl)pyrazolo[1,5-a]pyrimidine-3-carboxamide] here?
**A.** ++ (Compounds with a Cisplatin sensitization value >0.02 μM but <0.2 μM are marked with “++.”)

**Q.** How did the “Cisplatin Sensitization Assay” value turn out when `Nc1nn2cc(F)cnc2c1C(=O)Nc1cnccc1N1CCN(C2COC2)C2CC21` (centres unmarked) [I-N-112, 2-amino-6-fluoro-N-(4-(5-(oxetan-3-yl)-2,5-diazabicyclo[4.1.0]heptan-2-yl)pyridin-3-yl)pyrazolo[1,5-a]pyrimidine-3-carboxamide] was run?
**A.** + (Compounds with a Cisplatin sensitization value >0.2 μM but <5 μM are marked with “+.”)

**Q.** `Nc1nn2cc(Cl)cnc2c1C(=O)Nc1cnccc1OC1CCNCC1` [I-O-80, 2-amino-6-chloro-N-(4-(piperidin-4-yloxy)pyridin-3-yl)pyrazolo[1,5-a]pyrimidine-3-carboxamide] was tested. Which “Cisplatin Sensitization Assay” value did it give?
**A.** +++ (Compounds with a Cisplatin sensitization value of <0.02 μM are marked with “+++.”)

**Q.** `Nc1nn2cc(F)cnc2c1C(=O)Nc1cncc(Cl)c1N1CCNCC1` [I-N-126, 2-amino-N-(5-chloro-4-(piperazin-1-yl)pyridin-3-yl)-6-fluoropyrazolo[1,5-a]pyrimidine-3-carboxamide] was tested. Which “Cisplatin Sensitization Assay” value did it give?
**A.** +++ (Compounds with a Cisplatin sensitization value of <0.02 μM are marked with “+++.”)

**Q.** How did the “Cisplatin Sensitization Assay” value turn out when `CN(C)CCOc1ccncc1NC(=O)c1c(N)nn2cc(Cl)cnc12` [I-O-48, 2-amino-6-chloro-N-(4-(2-(dimethylamino)ethoxy)pyridin-3-yl)pyrazolo[1,5-a]pyrimidine-3-carboxamide] was run?
**A.** ++ (Compounds with a Cisplatin sensitization value >0.02 μM but <0.2 μM are marked with “++.”)

**Q.** `Cc1nonc1N1CCN(c2ccncc2NC(=O)c2c(N)nn3cc(F)cnc23)CC1` [I-N-260, 2-amino-6-fluoro-N-(4-(4-(4-methyl-1,2,5-oxadiazol-3-yl)piperazin-1-yl)pyridin-3-yl)pyrazolo[1,5-a]pyrimidine-3-carboxamide] was tested. Which “Cisplatin Sensitization Assay” value did it give?
**A.** +++ (Compounds with a Cisplatin sensitization value of <0.02 μM are marked with “+++.”)

**Q.** How did the “Cisplatin Sensitization Assay” value turn out when `Cn1cc(-c2ccncc2NC(=O)c2c(N)nn3cc(F)cnc23)ccc1=O` [I-C-59, 2-amino-6-fluoro-N-(1-methyl-6-oxo-1,6-dihydro-[3,4′-bipyridin]-3′-yl)pyrazolo[1,5-a]pyrimidine-3-carboxamide] was run?
**A.** ++ (Compounds with a Cisplatin sensitization value >0.02 μM but <0.2 μM are marked with “++.”)

**Q.** Which “Cisplatin Sensitization Assay” value does the source give for `Nc1nn2cc(F)cnc2c1C(=O)Nc1cnccc1N1CCC(C(=O)N2CCOCC2)CC1` [I-G-85, 2-amino-6-fluoro-N-(4-(4-(morpholine-4-carbonyl)piperidin-1-yl)pyridin-3-yl)pyrazolo[1,5-a]pyrimidine-3-carboxamide] here?
**A.** +++ (Compounds with a Cisplatin sensitization value of <0.02 μM are marked with “+++.”)
